Where a name gives a salt, the structure may show the parent alone.
Target: recombinant human PARP (Homo sapiens, UniProt P09874)
Assay: Measurement of PARP enzymatic activity (transfer of radiolabeled ADP-ribose from NAD+ to protein acceptor)
Type: biochemical
Conditions: not given
Experimental: PARP activity was monitored by transfer of radiolabeled ADP-ribose units from [^32]NAD^+ to a protein acceptor such as histone or PARP itself. […] The reactions were initiated by the addition of 100 μM NAD^+ supplemented with 2 uCi [^32]NAD^+/mL and maintained at room temperature for 12 minutes. […] The amount of acid-insoluble radioactivity, corresponding to polyADP-ribosylated protein, was quantitated in a Wallac MicroBeta scintillation counter.
Single-point inhibition data were calculated by comparing PARP, VEGFR2, or MLK3 activity in the presence of inhibitor to activity in the presence of DMSO only. Inhibition curves for compounds were generated by plotting percent inhibition versus log10 of the concentration of compound. IC50 values were calculated by nonlinear regression using the sigmoidal dose-response (variable slope) equation in GraphPad Prism as follows: y=bottom+(top−bottom)/(1+10^(log IC50^−x)*Hillslope) where y is the % activity at a given concentration of compound, x is the logarithm of the concentration of compound, bottom is the % inhibition at the lowest compound concentration tested, and top is the % inhibition at the highest compound concentration examined. The values for bottom and top were fixed at 0 and 100, respectively. IC50 values were reported as the average of at least three separate determinations.
For some compounds, inhibiting data is presented as percent inhibition at a specified concentration. Compounds are tabulated together with compound number, substituents, and enzyme inhibition data.

recombinant human PARP, sequence (P09874 whole entry): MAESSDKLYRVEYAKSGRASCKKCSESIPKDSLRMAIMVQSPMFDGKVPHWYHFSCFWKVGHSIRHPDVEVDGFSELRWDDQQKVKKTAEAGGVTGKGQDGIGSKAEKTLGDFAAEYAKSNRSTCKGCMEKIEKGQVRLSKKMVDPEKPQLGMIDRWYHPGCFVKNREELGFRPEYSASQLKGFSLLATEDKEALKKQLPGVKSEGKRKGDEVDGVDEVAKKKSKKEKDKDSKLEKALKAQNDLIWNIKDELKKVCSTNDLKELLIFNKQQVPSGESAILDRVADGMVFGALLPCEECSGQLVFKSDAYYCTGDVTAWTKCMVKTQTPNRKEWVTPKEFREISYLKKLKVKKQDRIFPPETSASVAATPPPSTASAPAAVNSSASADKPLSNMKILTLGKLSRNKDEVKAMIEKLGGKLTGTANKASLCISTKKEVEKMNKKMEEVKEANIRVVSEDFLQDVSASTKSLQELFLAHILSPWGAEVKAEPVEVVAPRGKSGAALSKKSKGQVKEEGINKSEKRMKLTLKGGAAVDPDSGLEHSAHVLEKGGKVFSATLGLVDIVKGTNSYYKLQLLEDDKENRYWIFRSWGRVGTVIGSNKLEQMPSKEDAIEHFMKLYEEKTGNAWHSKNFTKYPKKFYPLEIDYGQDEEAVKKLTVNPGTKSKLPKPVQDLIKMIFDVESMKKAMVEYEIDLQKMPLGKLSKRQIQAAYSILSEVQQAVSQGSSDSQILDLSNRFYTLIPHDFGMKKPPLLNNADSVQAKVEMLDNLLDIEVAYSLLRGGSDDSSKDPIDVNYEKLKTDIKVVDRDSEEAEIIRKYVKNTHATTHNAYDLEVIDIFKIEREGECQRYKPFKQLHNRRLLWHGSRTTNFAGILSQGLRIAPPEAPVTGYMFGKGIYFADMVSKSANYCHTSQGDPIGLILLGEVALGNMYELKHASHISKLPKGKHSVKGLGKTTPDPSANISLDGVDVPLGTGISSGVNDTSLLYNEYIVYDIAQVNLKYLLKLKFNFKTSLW

`O=C1NC(=O)c2c1c1c(c3[nH]c4ccc(C(=O)N5CCC6(CC5)OCCO6)cc4c23)CCC1` [Compound 2db] was tested, and the IC50 was 11 nM.

Same assay, conditions: PARP IC50 (nM), Table 2

`O=C(CBr)c1ccc2[nH]c3c4c(c5c(c3c2c1)C(=O)NC5=O)CCC4` [Compound 2e] showed an IC50 of 13 nM.

Same assay, conditions: Table 2; read-out: PARP IC50

Going from `O=C1NC(O)c2c1c1c(c3[nH]c4ccccc4c23)CCC1` (stereo not drawn) [Compound 2ay] to `O=CNCc1ccc2[nH]c3c4c(c5c(c3c2c1)C(O)NC5=O)CCC4` (stereo not drawn) [Compound 2cf], the IC50 falls from 408 nM to 124 nM (3.3-fold).

First: CCc1ccc2[nH]c3c4c(c5c(c3c2c1)C(=O)NC5=O)CCC4 [Compound 2az]
Second: NCc1ccc2[nH]c3c4c(c5c(c3c2c1)C(=O)NC5=O)CCC4 [Compound 2p, 3-(Aminomethyl)-5,7,8,9,10,11-hexahydrocyclopent[a]pyrrolo[3,4-c]carbazole-5(6H), 7-dione hydrochloride]
The IC50 of the first is 8.9-fold higher: 116 nM for the first, 13 nM for the second.

First: O=C1NC(=O)c2c1c1c(c3[nH]c4ccc(Cl)cc4c23)CCC1 [Compound 2b]
Second: Cc1ccc2[nH]c3c4c(c5c(c3c2c1)C(=O)NC5=O)CCC4 [Compound 2bf]
The IC50 of the first is 2.1-fold lower: 39 nM for the first, 82 nM for the second. The first is the more potent here.

Compared with `COC(=O)C(=O)c1ccc2[nH]c3c4c(c5c(c3c2c1)C(=O)NC5=O)CCC4` [Compound 2ba], `O=C(O)C(=O)c1ccc2[nH]c3c4c(c5c(c3c2c1)C(=O)NC5=O)CCC4` [Compound 2bb] is 2.4-fold lower in IC50: 12 nM for the first, 5 nM for the second.

`N#CCc1ccc2[nH]c3c4c(c5c(c3c2c1)C(=O)NC5=O)CCC4` [Compound 2bc] and `CNCc1ccc2[nH]c3c4c(c5c(c3c2c1)C(=O)NC5=O)CCC4` [Compound 2bt] are within 1.5-fold of each other in IC50: 24 nM for the first, 25 nM for the second.

Compared with `O=C(O)c1ccc2[nH]c3c4c(c5c(c3c2c1)C(=O)NC5=O)CCC4` [Compound 2bd], `NC(=O)c1ccc2[nH]c3c4c(c5c(c3c2c1)C(=O)NC5=O)CCC4` [Compound 2bh] is 2.7-fold lower in IC50: 85 nM for the first, 31 nM for the second. The second is the more potent here.

`NCCc1ccc2[nH]c3c4c(c5c(c3c2c1)C(=O)NC5=O)CCC4` [Compound 2be] and `CCNCc1ccc2[nH]c3c4c(c5c(c3c2c1)C(=O)NC5=O)CCC4` [Compound 2bk] are within 1.5-fold of each other in IC50: 36 nM for the first, 32 nM for the second.

`CN(C)CC(=O)OCc1ccc2[nH]c3c4c(c5c(c3c2c1)C(=O)NC5=O)CCC4` [Compound 2bg] and `CN(C)Cc1ccc2[nH]c3c4c(c5c(c3c2c1)C(=O)NC5=O)CCC4` [Compound 2bj] are within 1.5-fold of each other in IC50: 31 nM for the first, 29 nM for the second.

First: COC(=O)c1ccc2[nH]c3c4c(c5c(c3c2c1)C(=O)NC5=O)CCC4 [Compound 2bi]
Second: CC(=O)c1ccc2[nH]c3c4c(c5c(c3c2c1)C(=O)NC5=O)CCC4 [Compound 2d]
The IC50 of the first is 1.6-fold higher: 27 nM for the first, 17 nM for the second. The second is the more potent here.

First: CCCN(CCC)Cc1ccc2[nH]c3c4c(c5c(c3c2c1)C(=O)NC5=O)CCC4 [Compound 2bl]
Second: CCCCN(CCCC)Cc1ccc2[nH]c3c4c(c5c(c3c2c1)C(=O)NC5=O)CCC4 [Compound 2bn]
The IC50 of the first is 1.8-fold lower: 16 nM for the first, 28 nM for the second. The first is the more potent here.

`CCN(CC)Cc1ccc2[nH]c3c4c(c5c(c3c2c1)C(=O)NC5=O)CCC4` [Compound 2bm] and `CCN(CC)CC(=O)c1ccc2[nH]c3c4c(c5c(c3c2c1)C(=O)NC5=O)CCC4` [Compound 2j] are within 1.5-fold of each other in IC50: 17 nM for the first, 21 nM for the second.

First: O=C1NC(=O)c2c1c1c(c3[nH]c4ccc(CN(Cc5ccccc5)Cc5ccccc5)cc4c23)CCC1 [Compound 2bo]
Second: O=C1NC(=O)c2c1c1c(c3[nH]c4ccc(CNCc5ccccc5)cc4c23)CCC1 [Compound 2bq]
The IC50 of the first is 11-fold higher: 293 nM for the first, 26 nM for the second.

Going from `CCCCNCc1ccc2[nH]c3c4c(c5c(c3c2c1)C(=O)NC5=O)CCC4` [Compound 2bp] to `CCCC(=O)NCc1ccc2[nH]c3c4c(c5c(c3c2c1)C(=O)NC5=O)CCC4` [Compound 2t, 3-(Butanoylaminomethyl)-5,7,8,9,10,11-hexahydrocyclopent[a]pyrrolo[3,4-c]carbazole-5(6H), 7-dione], the IC50 rises from 25 nM to 44 nM (1.8-fold). The first is the more potent here.

First: CC(C)NCc1ccc2[nH]c3c4c(c5c(c3c2c1)C(=O)NC5=O)CCC4 [Compound 2br]
Second: CC(=O)NCc1ccc2[nH]c3c4c(c5c(c3c2c1)C(=O)NC5=O)CCC4 [Compound 2r, 3-(Acetylaminomethyl)-5,7,8,9,10,11-hexahydrocyclopent[a]pyrrolo[3,4-c]carbazole-5(6H), 7-dione]
The IC50 of the first is 1.9-fold higher: 25 nM for the first, 13 nM for the second. The second is the more potent here.

`O=C1NC(=O)c2c1c1c(c3[nH]c4ccc(CN5CCOCC5)cc4c23)CCC1` [Compound 2bv] and `O=C1NC(=O)c2c1c1c(c3[nH]c4ccc(CN5CCCC5)cc4c23)CCC1` [Compound 2bw] are within 1.5-fold of each other in IC50: 32 nM for the first, 35 nM for the second.

Going from `O=C1NC(=O)c2c1c1c(c3[nH]c4ccc(CN5CCCCC5)cc4c23)CCC1` [Compound 2bx] to `O=C(CN1CCCCC1)c1ccc2[nH]c3c4c(c5c(c3c2c1)C(=O)NC5=O)CCC4` [Compound 2i], the IC50 falls from 35 nM to 20 nM (1.8-fold). The second is the more potent here.

First: O=C(Cn1cnnn1)NCc1ccc2[nH]c3c4c(c5c(c3c2c1)C(=O)NC5=O)CCC4 [Compound 2by]
Second: CCC(=O)NCc1ccc2[nH]c3c4c(c5c(c3c2c1)C(=O)NC5=O)CCC4 [Compound 2s, 3-(Propanoylaminomethyl)-5,7,8,9,10,11-hexahydrocyclopent[a]pyrrolo[3,4-c]carbazole-5(6H), 7-dione]
The IC50 of the first is 2-fold lower: 14 nM for the first, 28 nM for the second. The first is the more potent here.

First: O=C1NC(=O)c2c1c1c(c3[nH]c4ccc(F)cc4c23)CCC1 [Compound 2c]
Second: N#Cc1ccc2[nH]c3c4c(c5c(c3c2c1)C(=O)NC5=O)CCC4 [Compound 2o, 3-Cyano-5,7,8,9,10,11-hexahydrocyclopent[a]pyrrolo[3,4-c]carbazole-5(6H), 7-dione]
The IC50 of the first is 2.8-fold higher: 39 nM for the first, 14 nM for the second.

Going from `CC(C)(C)OC(=O)NCCC(=O)NCc1ccc2[nH]c3c4c(c5c(c3c2c1)C(=O)NC5=O)CCC4` [Compound 2ca] to `O=CNCc1ccc2[nH]c3c4c(c5c(c3c2c1)C(=O)NC5=O)CCC4` [Compound 2ce], the IC50 falls from 95 nM to 34 nM (2.8-fold).

Compared with `O=C1NC(=O)c2c1c1c(c3[nH]c4ccc(CNS(=O)(=O)c5ccccc5)cc4c23)CCC1` [Compound 2cd], `O=C1NC(=O)c2c1c1c(c3[nH]c4ccc(COCCc5ccccn5)cc4c23)CCC1` [Compound 2df] is 2.7-fold higher in IC50: 39 nM for the first, 104 nM for the second.

`CN(C)CCNC(=O)c1ccc2[nH]c3c4c(c5c(c3c2c1)C(=O)NC5=O)CCC4` [Compound 2cg] and `CN(C)CCCNC(=O)c1ccc2[nH]c3c4c(c5c(c3c2c1)C(=O)NC5=O)CCC4` [Compound 2ch] are within 1.5-fold of each other in IC50: 31 nM for the first, 33 nM for the second.

Compared with `O=C(NCc1ccncc1)c1ccc2[nH]c3c4c(c5c(c3c2c1)C(=O)NC5=O)CCC4` [Compound 2ci], `O=C(NCc1cccnc1)c1ccc2[nH]c3c4c(c5c(c3c2c1)C(=O)NC5=O)CCC4` [Compound 2cl] is 1.6-fold higher in IC50: 13 nM for the first, 21 nM for the second.

Going from `O=C(NCCN1CCCCC1)c1ccc2[nH]c3c4c(c5c(c3c2c1)C(=O)NC5=O)CCC4` [Compound 2cm] to `O=C(NCCN1CCOCC1)c1ccc2[nH]c3c4c(c5c(c3c2c1)C(=O)NC5=O)CCC4` [Compound 2cn], the IC50 falls from 148 nM to 26 nM (5.7-fold).

First: COCCNC(=O)c1ccc2[nH]c3c4c(c5c(c3c2c1)C(=O)NC5=O)CCC4 [Compound 2co]
Second: CN(C)CCOC(=O)c1ccc2[nH]c3c4c(c5c(c3c2c1)C(=O)NC5=O)CCC4 [Compound 2cz]
The IC50 of the first is 1.7-fold lower: 18 nM for the first, 30 nM for the second.

`O=C1NC(=O)c2c1c1c(c3[nH]c4ccc(C(=O)N5CCOCC5)cc4c23)CCC1` [Compound 2cp] and `CN1CCN(C(=O)c2ccc3[nH]c4c5c(c6c(c4c3c2)C(=O)NC6=O)CCC5)CC1` [Compound 2cq] are the same in IC50: 12 nM for the first, 12 nM for the second.

First: O=C(NCC1CCCO1)c1ccc2[nH]c3c4c(c5c(c3c2c1)C(=O)NC5=O)CCC4 (stereo not drawn) [Compound 2cr]
Second: CC(Br)C(=O)c1ccc2[nH]c3c4c(c5c(c3c2c1)C(=O)NC5=O)CCC4 (stereo not drawn) [Compound 2f]
The IC50 of the first is 1.5-fold lower: 14 nM for the first, 21 nM for the second.

First: CN(C)CCN(C)C(=O)c1ccc2[nH]c3c4c(c5c(c3c2c1)C(=O)NC5=O)CCC4 [Compound 2cu]
Second: O=C1NC(=O)c2c1c1c(c3[nH]c4ccc(C(=O)N(CCO)CCO)cc4c23)CCC1 [Compound 2dc]
The IC50 of the first is 8.4-fold higher: 151 nM for the first, 18 nM for the second. The second is the more potent here.

`O=C(NCCc1ccccn1)c1ccc2[nH]c3c4c(c5c(c3c2c1)C(=O)NC5=O)CCC4` [Compound 2cv] and `CN(CCc1ccccn1)C(=O)c1ccc2[nH]c3c4c(c5c(c3c2c1)C(=O)NC5=O)CCC4` [Compound 2cw] are within 1.5-fold of each other in IC50: 18 nM for the first, 24 nM for the second.

First: CN(Cc1ccncc1)C(=O)c1ccc2[nH]c3c4c(c5c(c3c2c1)C(=O)NC5=O)CCC4 [Compound 2cx]
Second: O=C(Cn1cncn1)c1ccc2[nH]c3c4c(c5c(c3c2c1)C(=O)NC5=O)CCC4 [Compound 2n]
The IC50 of the first is 1.5-fold lower: 10 nM for the first, 15 nM for the second.

`CN(CC1CCNCC1)C(=O)c1ccc2[nH]c3c4c(c5c(c3c2c1)C(=O)NC5=O)CCC4` [Compound 2cy] and `CN1CCN(CC(=O)c2ccc3[nH]c4c5c(c6c(c4c3c2)C(=O)NC6=O)CCC5)CC1` [Compound 2g] are within 1.5-fold of each other in IC50: 23 nM for the first, 16 nM for the second.

Going from `CCOCc1ccc2[nH]c3c4c(c5c(c3c2c1)C(=O)NC5=O)CCC4` [Compound 2de] to `O=C(O)CCC(=O)c1ccc2[nH]c3c4c(c5c(c3c2c1)C(=O)NC5=O)CCC4` [Compound 2m], the IC50 falls from 43 nM to 3 nM (14-fold). The second is the more potent here.

First: CN(CC(=O)O)CC(=O)c1ccc2[nH]c3c4c(c5c(c3c2c1)C(=O)NC5=O)CCC4 [Compound 2l]
Second: O=C1NC(=O)c2c1c1c(c3[nH]c4ccc(CNCc5ccc6[nH]c7c8c(c9c(c7c6c5)C(=O)NC9=O)CCC8)cc4c23)CCC1 [Compound 2q, Bis-[5(6H), 7-dioxo-5,7,8,9,10,11-hexahydrocyclopent[a]pyrrolo[3,4-c]carbazol-3-ylmethyl]amine hydrochloride]
The IC50 of the first is 21-fold lower: 8 nM for the first, 167 nM for the second.

— patent US8716493B2, “Multicyclic compounds and the use thereof” (Cephalon, Inc., priority 2000, dated 2014)
